Columns and labels:
human TGR5 receptor = target: T1, human TGR5 receptor (Homo sapiens, UniProt Q8TDU6); experiment: Human TGR5 cAMP production assay (hTGR5-CHO cells, DiscoveRx cAMP XS+ kit); type: cell-based; details: luminescent cAMP assay, read-out: Human TGR5 Lum. cAMP Activity (EC50)
T1 construct: host or cells: CHO-K1 (hTGR5-CHO)
T1 sequence (Q8TDU6 1-330): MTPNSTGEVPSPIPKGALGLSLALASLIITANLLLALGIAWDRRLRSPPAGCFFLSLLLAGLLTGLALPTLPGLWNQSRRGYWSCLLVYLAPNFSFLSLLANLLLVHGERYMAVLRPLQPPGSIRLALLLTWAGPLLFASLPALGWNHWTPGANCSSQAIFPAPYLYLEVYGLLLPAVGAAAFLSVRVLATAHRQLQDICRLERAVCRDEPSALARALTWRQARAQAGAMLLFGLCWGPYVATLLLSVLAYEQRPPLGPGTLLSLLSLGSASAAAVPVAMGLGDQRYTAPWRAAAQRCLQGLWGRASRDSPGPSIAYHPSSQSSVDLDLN
Description: Human TGR5 cAMP Production Assay
Compounds of the present invention were evaluated for their ability to induce cAMP production using CHO-K1 cells overexpressing the human TGR5 receptor.
CHO-K1 cells stably expressing human TGR5 receptor (accession number NM_001077194.1) (hTGR5) (i.e., hTGR5-CHO cells) were purchased from DiscoveRx Corporation (Fremont, Calif.). hTGR5-CHO cells were grown in Ham's F-12 media supplemented with 10% Fetal Bovine Serum, 1% Penicillin-Streptomycin, 2 mM L-Alanine L-Glutamine (Glutamax), and 800 μg/mL Geneticin selection. The cAMP production assay was performed using DiscoveRx's cAMP XS+ kit (Catalog No. 90-0075XL) following the manufacturer's recommended protocol. Briefly, hTGR5-CHO cells were harvested using non-enzymatic cell dissociation buffer (Sigma-Aldrich, St. Louis, Mo.) and 1×10^6 cells were combined in Phosphate-Buffered Saline (PBS) to a final volume of 496 μL to which 4 μL of 125 mM IBMX (Sigma-Aldrich, St. Louis, Mo.) was added. 500 μL of cAMP antibody solution was added to the harvested cells and incubated at room temperature for 20 min.
Test compounds were serially diluted (half-log dilutions) in DMSO and then further diluted 1:50 in PBS, 10 mM HEPES buffer. 2 μL of serially diluted compound was added to a 384-well low volume plate (Greiner; cat #784075) and centrifuged briefly. 2 μl of the cell/cAMP antibody mixture was then added to each compound-containing well and allowed to incubate at room temperature for one hour. Following incubation, the XS+ kits' ED/Lysis/CL Substrate Working Solution was prepared following the manufacturer's recommended protocol and 4 μL was added to each well of the plate. The plate was then incubated for one hour at room temperature. Following incubation, 4 μL of Enzyme Acceptor reagent was added to the plate and allowed to incubate overnight at room temperature. Luminescent signal was then detected using the Viewlux instrument (Perkin-Elmer, Waltham, Mass.).
Human and Mouse TGR5 cAMP
(§1) In Table 52, EC50 values for both human and mouse cells were determined according to the TGR5 cAMP assays described above. […]

mouse TGR5 receptor = target: T2, mouse TGR5 receptor (Mus musculus, UniProt Q80SS6); experiment: Mouse TGR5 HTRF cAMP production assay (HEK293-EBNA cells, Cisbio cAMP HiRange kit); type: cell-based; details: HEK293-EBNA cells overexpressing mouse TGR5, HTRF cAMP assay
T2 construct: host or cells: HEK293-EBNA (293 c18, ATCC CRL10852)
T2 sequence (Q80SS6 1-329): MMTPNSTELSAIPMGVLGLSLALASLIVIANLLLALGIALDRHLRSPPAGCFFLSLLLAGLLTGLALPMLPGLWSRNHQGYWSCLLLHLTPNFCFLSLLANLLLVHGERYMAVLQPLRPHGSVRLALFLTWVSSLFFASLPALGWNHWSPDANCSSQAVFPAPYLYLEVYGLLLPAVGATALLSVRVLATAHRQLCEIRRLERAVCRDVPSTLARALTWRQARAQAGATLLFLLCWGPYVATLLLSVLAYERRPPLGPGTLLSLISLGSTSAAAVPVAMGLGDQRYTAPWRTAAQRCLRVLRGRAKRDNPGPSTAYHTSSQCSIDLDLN
Description: Mouse TGR5 cAMP Production Assay
Compounds of the present invention were evaluated for their ability to induce cAMP production in HEK-EBNA cells overexpressing the mouse TGR5 receptor. Human embryonic kidney cells (HEK293-EBNA) stably expressing mouse TGR5 receptor were established using the following procedure. Specifically, a commercially obtained gene encoding mouse TGR5 (accession number BC116914) from Thermo Scientific (Waltham, Mass.) was cloned into an episomal expression vector. The resulting expression plasmid was then transfected into 293 c18 (ATCC® CRL10852™) cells, which express the Epstein-Barr virus nuclear antigen EBNA1 and can support the replication of episomal vectors. Selection for the plasmid was maintained with Hygromycin B. Cells were cultured and maintained in DMEM (Sigma; cat #6429) supplemented with 10% Fetal Bovine Serum, 1% penicillin/streptomycin, 2 mM L-alanine L-glutamine (GlutaMax), and 250 μg/mL Hygromycin.
We developed two cAMP production assays.
(ii) HTRF cAMP Production Assay
In this second cAMP production assay, the cAMP production was measured in 384-well low volume plates (Greiner; cat #784075) using the Cisbio™ cAMP HiRange HTRF Assay Kit (CisBio) according to the manufacturer's protocol.
Briefly, compounds were initially diluted in 100% DMSO (12-point serial dilution by half logs) in a 96-well plate and then were further diluted 1:50 in PBS containing 10 mM HEPES. 5 μL were transferred to the 384-well assay plate in duplicate. HEK293-EBNA cells stably overexpressing mouse TGR5 were harvested using non-enzymatic cell dissociation buffer (Sigma), spun down, then resuspended in serum-free DMEM with 500 μM IBMX at a density of 500,000 cells/mL. 5 μL of cell suspension was transferred to each well of the 384-well assay plate already containing compound. The plate was covered and incubated at room temperature for 1 hour. The d2-cAMP and anti-cAMP Ab-cryptate stock solutions were prepared as per kit instructions. Then 5 μL of each conjugate (d2 and cryptate) were added to each well of the assay plate. The plate was covered and incubated at room temperature for one (1) hour. The plate was read on an Envision™ plate reader (PerkinElmer).
as §1

| SMILES | EC50 (human TGR5 receptor) [µM] | EC50 (mouse TGR5 receptor) [µM] |
| --- | --- | --- |
| COC(=O)C(=O)N1CCN(c2cc(N3CCC[C@@H](C(=O)NCCc4ccc(C(F)(F)F)cc4)C3)nc(C(F)(F)F)n2)CC1 [Compound 339, (R)-methyl 2-oxo-2-(4-(2-(trifluoromethyl)-6-(3-((4-(trifluoromethyl)phenethyl)-carbamoyl)piperidin-1-yl)pyrimidin-4-yl)piperazin-1-yl)acetate] | 1 to 30 | 0.1 to 0.999 |
| O=C(O)CCCC1CCN(c2cc(N3CCC[C@H]3C(=O)NCCc3ccc(Cl)cc3Cl)ncn2)CC1 [Compound 35] | 1 to 30 | 0.1 to 0.999 |
| CN(C)CCN1CCN(c2cc(N3CC[C@H]3C(=O)NCCc3ccc(C#N)cc3)nc(C(F)(F)F)n2)CC1 [Compound 226, (S)-N-(4-cyanophenethyl)-1-(6-(4-(2-(dimethylamino)ethyl)piperazin-1-yl)-2-(trifluoromethyl)pyrimidin-4-yl)azetidine-2-carboxamide] | 0.1 to 0.999 | 0.1 to 0.999 |
| O=C(O)CCNC(=O)N1CCN(c2cc(N3CCC[C@@H](C(=O)NCCc4ccc(C(F)(F)F)cc4)C3)nc(C(F)(F)F)n2)CC1 [Compound 344, (R)-3-(4-(2-(trifluoromethyl)-6-(3-((4-(trifluoromethyl)phenethyl)carbamoyl)-piperidin-1-yl)pyrimidin-4-yl)piperazine-1-carboxamido)propanoic acid] | 0.1 to 0.999 | < 0.1 |

The next lines start with the values.

| EC50 (human TGR5 receptor) [µM] | EC50 (mouse TGR5 receptor) [µM] | SMILES |
| --- | --- | --- |
| 0.1 to 0.999 | < 0.1 | CC(C)(C)OC(=O)CCNc1c(NCCC2CCN(c3cc(N4CC[C@H]4C(=O)NCCc4ccc(C#N)cc4)nc(C(F)(F)F)n3)CC2)c(=O)c1=O [Compound 300, (S)-tert-butyl 3-((2-((2-(1-(6-(2-((4-cyanophenethyl)carbamoyl)azetidin-1-yl)-2-(trifluoromethyl)pyrimidin-4-yl)piperidin-4-yl)ethyl)amino)-3,4-dioxocyclobut-1-en-1-yl)amino)propanoate] |
| < 0.1 | < 0.1 | COc1cc(C(F)(F)F)ccc1CCNC(=O)[C@@H]1CCN1c1cc(N2CCC(CO)CC2)nc(C(F)(F)F)n1 [Compound 237, (S)-1-(6-(4-(hydroxymethyl)piperidin-1-yl)-2-(trifluoromethyl)pyrimidin-4-yl)-N-(2-methoxy-4-(trifluoromethyl)phenethyl)azetidine-2-carboxamide] |
| 0.1 to 0.999 | < 0.1 | COC(=O)c1ccc(S(=O)(=O)NCCOCCNC(=O)CCCC2CCN(c3cc(N4CC[C@H]4C(=O)NCCc4ccc(C#N)cc4)nc(C(F)(F)F)n3)CC2)cc1 [Compound 290, (S)-methyl 4-(N-(2-(2-(4-(1-(6-(2-((4-cyanophenethyl)carbamoyl)azetidin-1-yl)-2-(trifluoromethyl)pyrimidin-4-yl)piperidin-4-yl)butanamido)ethoxy)ethyl)-sulfamoyl)benzoate] |
| 0.1 to 0.999 | < 0.1 | N#Cc1ccc(CCNC(=O)[C@@H]2CCCN2c2cc(N3CCC(CCCC(=O)NCCNC(=O)c4cc(NC[C@H](O)[C@@H](O)[C@H](O)[C@H](O)CO)ncn4)CC3)nc(C(F)(F)F)n2)cc1 [Compound 100, N-(2-(4-(1-(6-((S)-2-((4-cyanophenethyl)carbamoyl)pyrrolidin-1-yl)-2-(trifluoromethyl)pyrimidin-4-yl)piperidin-4-yl)butanamido)ethyl)-6-(((2S,3R,4R,5R)-2,3,4,5,6-pentahydroxyhexyl)amino)-pyrimidine-4-carboxamide] |
| < 0.1 | < 0.1 | CCOC(=O)CCNC(=O)NCCC1CCN(c2cc(N3CCC[C@H]3C(=O)NCCc3ccc(C#N)cc3)nc(C(F)(F)F)n2)CC1 [Compound 55, (S)-ethyl 3-(3-(2-(1-(6-(2-((4-cyanophenethyl)carbamoyl)pyrrolidin-1-yl)-2-(trifluoromethyl)pyrimidin-4-yl)piperidin-4-yl)ethyl)ureido)propanoate] |

Source: US10654834B2 (Venenum Biodesign, LLC, priority 2016, dated 2020)
